Measurements: patent publication US11065343B2, “Compound bearing beta-galactoside-introduced self-immolative linker” (IntoCell Inc., priority 2016, dated 2021)
Where two headings read alike, the source gives them in different places. *1 amine or outer side, *2 acyl side, *3 side chain or, on linkers, in order; H or OH if unused. Where a SMILES comes first, the peptide text is derived from it. [ ]: non-standard residue; d: D form. ξ: configuration not given here. Dil(5ξ) = CCC(C)[C@@H]([C@@H](CC(=O)[*:2])OC)N(C)[*:1]; Dolaproine = CO[C@@H]([C@@H]1CCCN1)[C@@H](C)C(=O)O; NMeV = CN[C@H](C(=O)O)C(C)C; ξF = NC(Cc1ccccc1)C(=O)O

Columns and labels:
KB cancer cell line = experiment: In vitro cytotoxicity of ligand-drug conjugates (MTT); assay type: cell-based, human; conditions: for IC50: read-out: Cell cytotoxicity IC50
Procedure: KB cancer cell line was seeded 30,000 cells per well of a 96-well plate, and after the culture for 24 hours, the drug MMAF-OMe was treated with a concentration of 0.0097˜10 nM (4-fold serial dilution), ligand-drug conjugate (B) prepared in Comparative Example 2 and ligand-drug conjugate (1) prepared in Example 2 were treated with a concentration of 0.0244-100 nM (4-fold serial dilution). The number of live cell after 72 hours was quantified by using 3-(4,5-dimethylthiazol-2-yl)-2,5-diphenyltetrazolium bromide (MTT) dye as chromogenic reagent. And then formazan reduced by oxidoreductase present in live cells were dissolved in DMSO, and quantified. […] Therefore, in the case of compound (1) to which galactoside linker is introduced, it could be confirmed that it has better efficacy compared with compound (B) to which glucuronide linker is introduced.

beta-galactosidase = molecular target: T1, beta-galactosidase (Escherichia coli, UniProt P00722); experiment: in vitro; assay type: biochemical, E. coli; conditions: Escherichia coli; beta-galactosidase, PBS buffer, 37° C., HPLC; read-out: hydrolysis half-life by enzyme
T1 construct: purchased Sigma G4155
Procedure: (§1) In order to identify the reactivity of ligand-drug conjugate (1) of Example 2 to β-galactosidase, the difference of the reactivity to R-glucuronidase between it and ligand-drug conjugate (B) of Comparative Example 2 as a comparative material was compared.
(§2) Ligand-drug conjugate (1) of Example 2 and ligand-drug conjugate (B) of Comparative Example 2 were respectively dissolved in DMSO to a concentration of 9 mM, and then each of them was mixed with PBS buffer solution to prepare 500 μM of solution.
(§3) An enzyme reaction solution for ligand-drug conjugate (1) of Example 2 was prepared by adding 1 mg/mL enzyme solution (10 μL) to the mixed solution comprising PBS buffer solution (440 μL) and 500 μM ligand-drug conjugate (1) solution (50 μL) of Example 2, then the reaction was initiated in 37° C. of the incubator.
(§4) Beta-galactosidase enzyme (Sigma G4155) in E. coli was used for the reaction mixture comprising ligand-drug conjugate (1) of Example 2 and beta-glucuronidase enzyme (Sigma G7396) in E. coli was used for the reaction mixture comprising ligand-drug conjugate (B) of Comparative Example 2 for the comparison experiment.
(§5) That is, in the case of compound (1) to which galactoside linker is introduced, it could be confirmed that it has more rapid hydrolysis rate 6 times or more, relative to comparison compound (B) to which glucuronide linker is introduced.

[1] = molecular target: T2, Beta-galactosidase enzyme (Sigma G4155) in E. coli (Escherichia coli, UniProt P00722); experiment: in vitro; assay type: biochemical; conditions: (1) with beta-galactosidase versus (B) with beta-glucuronidase
T2 construct: purchased Sigma G4155
Procedure: as §1, §2, §3, §4, §5

folate receptor = molecular target: T3, folate receptor (Homo sapiens, UniProt P15328); experiment: Binding affinity of ligand-drug conjugate to folic acid receptor (competition with FA-Cy5 tracer, polarized light)
T3 construct: Soluble plasma membrane from KB human cancer cells were isolated; endogenous in cells; host or cells: KB human cancer cells (plasma membrane protein extract, Abcam kit ab65400)
Procedure: Soluble plasma membrane from KB human cancer cells were isolated using plasma membrane protein extraction kit (ab65400) (Abcam company). […] After the preincubation for 15 minutes, FA-Cy5 tracer prepared in Preparation Example 10 was treated with a concentration of 1 nM, and after the reaction for 2 hours at 37° C., synergy2 microplate reader (BioTek company) (ex/em=635/688 nm) was used to measure polarized light.

T3 sequence (P15328 25-234): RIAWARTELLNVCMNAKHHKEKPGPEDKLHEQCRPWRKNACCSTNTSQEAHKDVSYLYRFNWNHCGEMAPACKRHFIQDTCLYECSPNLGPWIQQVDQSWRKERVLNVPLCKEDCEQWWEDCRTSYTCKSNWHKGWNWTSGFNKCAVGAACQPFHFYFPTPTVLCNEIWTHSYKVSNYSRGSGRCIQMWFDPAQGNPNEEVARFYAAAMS
T2 sequence (P00722 2-1024): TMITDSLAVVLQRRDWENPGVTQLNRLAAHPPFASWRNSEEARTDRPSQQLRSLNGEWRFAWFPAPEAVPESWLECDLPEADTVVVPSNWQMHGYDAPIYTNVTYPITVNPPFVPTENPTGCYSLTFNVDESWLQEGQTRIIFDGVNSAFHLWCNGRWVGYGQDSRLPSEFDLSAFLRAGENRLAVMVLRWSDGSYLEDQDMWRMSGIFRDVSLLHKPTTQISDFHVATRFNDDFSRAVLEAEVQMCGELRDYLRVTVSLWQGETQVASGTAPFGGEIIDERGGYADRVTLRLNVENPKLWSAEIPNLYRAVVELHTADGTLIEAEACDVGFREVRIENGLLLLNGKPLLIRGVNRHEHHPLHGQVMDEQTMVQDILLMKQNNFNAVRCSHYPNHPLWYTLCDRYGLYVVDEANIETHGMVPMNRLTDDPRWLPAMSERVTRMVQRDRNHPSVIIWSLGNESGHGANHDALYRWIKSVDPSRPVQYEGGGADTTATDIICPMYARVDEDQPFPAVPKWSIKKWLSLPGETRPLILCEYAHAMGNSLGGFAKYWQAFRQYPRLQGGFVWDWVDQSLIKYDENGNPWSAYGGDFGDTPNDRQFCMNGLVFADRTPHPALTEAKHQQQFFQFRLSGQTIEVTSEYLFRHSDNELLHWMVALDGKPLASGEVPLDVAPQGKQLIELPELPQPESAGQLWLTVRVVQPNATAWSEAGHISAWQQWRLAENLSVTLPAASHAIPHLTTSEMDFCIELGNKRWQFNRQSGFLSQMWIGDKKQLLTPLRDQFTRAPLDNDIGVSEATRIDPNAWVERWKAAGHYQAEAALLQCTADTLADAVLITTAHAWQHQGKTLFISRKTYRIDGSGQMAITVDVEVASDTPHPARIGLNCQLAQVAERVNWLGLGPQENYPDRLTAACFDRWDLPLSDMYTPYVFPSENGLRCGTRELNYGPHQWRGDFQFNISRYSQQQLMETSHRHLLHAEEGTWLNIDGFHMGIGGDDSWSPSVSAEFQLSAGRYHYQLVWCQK
T1 sequence (P00722 2-1024): as above

**Q.** `CCC(C)[C@@H]([C@@H](CC(=O)N1CCC[C@H]1[C@H](OC)[C@@H](C)C(=O)NC(Cc1ccccc1)C(=O)OC)OC)N(C)C(=O)[C@@H](NC(=O)[C@@H](NC)C(C)C)C(C)C` (stereo partly shown) [MMAF-OMe, reference compound] (H-[NMeV]V[Dil(5ξ)][Dolaproine][ξF]-OMe) was tested. Which IC50 (KB cancer cell line; Homo sapiens, KB, 72 h) did it give?
**A.** 0.38 ± 0.17 nM

**Q.** Which results are given for `CCC(C)[C@@H]([C@@H](CC(=O)N1CCC[C@H]1[C@H](OC)[C@@H](C)C(=O)N[C@@H](Cc1ccccc1)C(=O)O)OC)N(C)C(=O)[C@@H](NC(=O)[C@H](C(C)C)N(C)C(=O)OCc1ccc(O[C@@H]2O[C@H](CO)[C@H](O)[C@H](O)[C@H]2O)c(C(=O)NCCOCCOCCOCc2cn(CCC(=O)N[C@@H](CCCCN)C(=O)NCCOCCOCCNC(=O)CC[C@H](NC(=O)c3ccc(NCc4cnc5nc(N)[nH]c(=O)c5n4)cc3)C(=O)O)nn2)c1)C(C)C` (stereo partly shown) [ligand-drug conjugate (1)]?
**A.** half-life at 50 µM (beta-galactosidase): 34.7 min; more rapid hydrolysis rate relative to comparison compound (B) [1]: ≥ 6 times; IC50 (folate receptor): 17.5 nM; binding affinity (IC50) better than (B) (folate receptor; relative to ligand-drug conjugate (B)): 2.5 fold; IC50 (KB cancer cell line; KB cell, 72 hours, MTT): 0.44 ± 0.12 nM; cytotoxicity better than conjugate (B) (KB cancer cell line; KB cell, relative to conjugate (B)): about twofold
